Experimental data: PubChem BioAssay (NCI)
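All cell lines were grown in 96-well plates and treated with compound for 48 hours. GI50 marks 50% less growth. Definition used: TGI = concentration required for complete inhibition of growth.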

What was measured:
Assay in all cases: DTP human tumour cell line panel, 48 h
SF-539 CNS = test system: SF-539 CNS
SW-620 colon = test system: SW-620 colon
EKVX NSCLC = test system: EKVX NSCLC
DU-145 prostate = test system: DU-145 prostate
MCF7 breast = test system: MCF7 breast
SNB-19 CNS = test system: SNB-19 CNS
KM12 colon = test system: KM12 colon
NCI-H23 lung = test system: NCI-H23 lung
786-0 renal = test system: 786-0 renal
SR leukemia = test system: SR leukemia
CCRF-CEM leukemia = test system: CCRF-CEM leukemia
NCI-H522 lung = test system: NCI-H522 lung
MOLT-4 leukemia = test system: MOLT-4 leukemia
UACC-257 melanoma = test system: UACC-257 melanoma
TK-10 renal = test system: TK-10 renal
HCT-15 colon = test system: HCT-15 colon
T-47D breast = test system: T-47D breast
MDA-MB-231 breast = test system: MDA-MB-231 breast
SF-295 CNS = test system: SF-295 CNS
M14 melanoma = test system: M14 melanoma
K-562 leukemia = test system: K-562 leukemia
NCI-H460 lung = test system: NCI-H460 lung
OVCAR-3 ovarian = test system: OVCAR-3 ovarian
OVCAR-8 ovarian = test system: OVCAR-8 ovarian
HT29 colon = test system: HT29 colon
IGROV1 ovarian = test system: IGROV1 ovarian
OVCAR-4 ovarian = test system: OVCAR-4 ovarian
CAKI-1 renal = test system: CAKI-1 renal
NCI-H226 lung = test system: NCI-H226 lung
HCC-2998 colon = test system: HCC-2998 colon
HOP-92 NSCLC = test system: HOP-92 NSCLC
PC-3 prostate = test system: PC-3 prostate
HOP-62 NSCLC = test system: HOP-62 NSCLC
BT-549 breast = test system: BT-549 breast
ACHN renal = test system: ACHN renal
MDA-MB-435 = test system: MDA-MB-435
SK-MEL-28 melanoma = test system: SK-MEL-28 melanoma
SK-MEL-2 melanoma = test system: SK-MEL-2 melanoma
SK-MEL-5 melanoma = test system: SK-MEL-5 melanoma
OVCAR-5 ovarian = test system: OVCAR-5 ovarian
RPMI-8226 leukemia = test system: RPMI-8226 leukemia
NCI/ADR-RES ovarian = test system: NCI/ADR-RES ovarian
U251 CNS = test system: U251 CNS
UACC-62 melanoma = test system: UACC-62 melanoma
HL-60(TB) leukemia = test system: HL-60(TB) leukemia
A498 renal = test system: A498 renal
SN12C renal = test system: SN12C renal
A549 NSCLC = test system: A549 NSCLC
SK-OV-3 ovarian = test system: SK-OV-3 ovarian
LOX IMVI melanoma = test system: LOX IMVI melanoma
RXF 393 renal = test system: RXF 393 renal
HCT-116 colon = test system: HCT-116 colon
COLO 205 colon = test system: COLO 205 colon
SNB-75 CNS = test system: SNB-75 CNS
HS 578T breast = test system: HS 578T breast
UO-31 renal = test system: UO-31 renal
SF-268 CNS = test system: SF-268 CNS

Question: With `N#CC(C#N)=C1/C(=C/C=C/C=C/C=C/c2ccc(N3CCCCC3)s2)S(=O)(=O)c2ccccc21` as the molecule, how does the TGI (SF-539 CNS) read?
Answer: > 100 µM

Question: And the TGI (SW-620 colon)?
Answer: > 100 µM

Question: What about the TGI (EKVX NSCLC) of the same molecule?
Answer: > 100 µM

Question: And the TGI (DU-145 prostate)?
Answer: > 100 µM

Question: And the TGI (MCF7 breast)?
Answer: > 100 µM

Question: And the TGI (SNB-19 CNS)?
Answer: > 100 µM

Question: What about the TGI (KM12 colon) of the same molecule?
Answer: > 100 µM

Question: And the TGI (NCI-H23 lung)?
Answer: > 100 µM

Question: And the TGI (786-0 renal)?
Answer: > 100 µM

Question: What about the TGI (SR leukemia) of the same molecule?
Answer: > 100 µM

Question: And the TGI (CCRF-CEM leukemia)?
Answer: > 100 µM

Question: And the TGI (NCI-H522 lung)?
Answer: > 100 µM

Question: And the TGI (MOLT-4 leukemia)?
Answer: 63 µM

Question: What about the TGI (UACC-257 melanoma) of the same molecule?
Answer: > 100 µM

Question: And the TGI (TK-10 renal)?
Answer: > 100 µM

Question: What about the TGI (HCT-15 colon) of the same molecule?
Answer: > 100 µM

Question: And the TGI (T-47D breast)?
Answer: > 100 µM

Question: And the TGI (MDA-MB-231 breast)?
Answer: > 100 µM

Question: What about the TGI (SF-295 CNS) of the same molecule?
Answer: > 100 µM

Question: What about the TGI (M14 melanoma) of the same molecule?
Answer: > 100 µM

Question: What about the TGI (K-562 leukemia) of the same molecule?
Answer: > 100 µM

Question: And the TGI (NCI-H460 lung)?
Answer: > 100 µM

Question: And the TGI (OVCAR-3 ovarian)?
Answer: > 100 µM

Question: And the TGI (OVCAR-8 ovarian)?
Answer: > 100 µM

Question: What about the TGI (HT29 colon) of the same molecule?
Answer: > 100 µM

Question: And the TGI (IGROV1 ovarian)?
Answer: > 100 µM

Question: What about the TGI (OVCAR-4 ovarian) of the same molecule?
Answer: > 100 µM

Question: And the TGI (CAKI-1 renal)?
Answer: > 100 µM

Question: What about the TGI (NCI-H226 lung) of the same molecule?
Answer: > 100 µM

Question: And the TGI (HCC-2998 colon)?
Answer: > 100 µM

Question: And the TGI (HOP-92 NSCLC)?
Answer: > 100 µM

Question: And the TGI (PC-3 prostate)?
Answer: > 100 µM

Question: And the TGI (HOP-62 NSCLC)?
Answer: > 100 µM

Question: What about the TGI (BT-549 breast) of the same molecule?
Answer: > 100 µM

Question: And the TGI (ACHN renal)?
Answer: > 100 µM

Question: And the TGI (MDA-MB-435)?
Answer: > 100 µM

Question: And the TGI (SK-MEL-28 melanoma)?
Answer: > 100 µM

Question: And the TGI (SK-MEL-2 melanoma)?
Answer: > 100 µM

Question: And the TGI (SK-MEL-5 melanoma)?
Answer: > 100 µM

Question: And the TGI (OVCAR-5 ovarian)?
Answer: > 100 µM

Question: What about the TGI (RPMI-8226 leukemia) of the same molecule?
Answer: > 100 µM

Question: What about the TGI (NCI/ADR-RES ovarian) of the same molecule?
Answer: > 100 µM

Question: And the TGI (U251 CNS)?
Answer: > 100 µM

Question: What about the TGI (UACC-62 melanoma) of the same molecule?
Answer: > 100 µM

Question: And the TGI (HL-60(TB) leukemia)?
Answer: > 100 µM

Question: What about the TGI (A498 renal) of the same molecule?
Answer: > 100 µM

Question: And the TGI (SN12C renal)?
Answer: > 100 µM

Question: What about the TGI (A549 NSCLC) of the same molecule?
Answer: > 100 µM

Question: What about the TGI (SK-OV-3 ovarian) of the same molecule?
Answer: > 100 µM

Question: And the TGI (LOX IMVI melanoma)?
Answer: > 100 µM

Question: What about the TGI (RXF 393 renal) of the same molecule?
Answer: > 100 µM

Question: And the TGI (HCT-116 colon)?
Answer: > 100 µM

Question: What about the TGI (COLO 205 colon) of the same molecule?
Answer: > 100 µM

Question: What about the TGI (SNB-75 CNS) of the same molecule?
Answer: > 100 µM

Question: What does the source list for `NC(=O)c1cc(Cl)ccc1NC(=O)COc1ccccc1`?
Answer: GI50 (SF-539 CNS): 1.8 µM; TGI (SF-539 CNS): 5.2 µM; GI50 (SW-620 colon): 2.58 µM; TGI (SW-620 colon): > 100 µM; GI50 (DU-145 prostate): 6.01 µM; TGI (DU-145 prostate): > 100 µM; GI50 (MCF7 breast): 1.81 µM; TGI (MCF7 breast): > 100 µM; GI50 (SNB-19 CNS): 11.7 µM; TGI (SNB-19 CNS): > 100 µM; GI50 (KM12 colon): 2.13 µM; TGI (KM12 colon): > 100 µM; GI50 (NCI-H23 lung): 5.9 µM; TGI (NCI-H23 lung): > 100 µM; GI50 (786-0 renal): 9.54 µM; TGI (786-0 renal): > 100 µM; GI50 (SR leukemia): 0.777 µM; TGI (SR leukemia): > 100 µM; GI50 (CCRF-CEM leukemia): 3.07 µM; TGI (CCRF-CEM leukemia): > 100 µM; GI50 (NCI-H522 lung): 3.78 µM; TGI (NCI-H522 lung): > 100 µM; GI50 (HS 578T breast): 4.65 µM; TGI (HS 578T breast): > 100 µM; GI50 (MOLT-4 leukemia): 8.14 µM; TGI (MOLT-4 leukemia): > 100 µM; GI50 (UACC-257 melanoma): > 100 µM; TGI (UACC-257 melanoma): > 100 µM; GI50 (TK-10 renal): 63.8 µM; TGI (TK-10 renal): > 100 µM; GI50 (HCT-15 colon): 1.57 µM; TGI (HCT-15 colon): > 100 µM; GI50 (UO-31 renal): 17.9 µM; TGI (UO-31 renal): > 100 µM; GI50 (T-47D breast): 6.88 µM; TGI (T-47D breast): > 100 µM; GI50 (MDA-MB-231 breast): 9.02 µM; TGI (MDA-MB-231 breast): > 100 µM; GI50 (SF-295 CNS): 1.96 µM; TGI (SF-295 CNS): 41.6 µM; GI50 (M14 melanoma): 2.21 µM; TGI (M14 melanoma): > 100 µM; GI50 (K-562 leukemia): 0.854 µM; TGI (K-562 leukemia): > 100 µM; GI50 (NCI-H460 lung): 3 µM; TGI (NCI-H460 lung): > 100 µM; GI50 (OVCAR-3 ovarian): 2.3 µM; TGI (OVCAR-3 ovarian): 10 µM; GI50 (OVCAR-8 ovarian): 7.06 µM; TGI (OVCAR-8 ovarian): > 100 µM; GI50 (HT29 colon): 1.74 µM; TGI (HT29 colon): > 100 µM; GI50 (IGROV1 ovarian): 5.6 µM; TGI (IGROV1 ovarian): > 100 µM; GI50 (OVCAR-4 ovarian): > 100 µM; TGI (OVCAR-4 ovarian): > 100 µM; GI50 (CAKI-1 renal): 4.18 µM; TGI (CAKI-1 renal): > 100 µM; GI50 (NCI-H226 lung): > 100 µM; TGI (NCI-H226 lung): > 100 µM; GI50 (HCC-2998 colon): 12.1 µM; TGI (HCC-2998 colon): > 100 µM; GI50 (HOP-92 NSCLC): 5.7 µM; TGI (HOP-92 NSCLC): > 100 µM; GI50 (PC-3 prostate): 3.22 µM; TGI (PC-3 prostate): > 100 µM; GI50 (HOP-62 NSCLC): 5.88 µM; TGI (HOP-62 NSCLC): > 100 µM; GI50 (ACHN renal): 10.7 µM; TGI (ACHN renal): > 100 µM; GI50 (MDA-MB-435): 0.356 µM; TGI (MDA-MB-435): 2.22 µM; GI50 (SK-MEL-28 melanoma): 6.25 µM; TGI (SK-MEL-28 melanoma): > 100 µM; GI50 (SK-MEL-2 melanoma): 5.08 µM; TGI (SK-MEL-2 melanoma): > 100 µM; GI50 (SK-MEL-5 melanoma): 7.45 µM; TGI (SK-MEL-5 melanoma): > 100 µM; GI50 (OVCAR-5 ovarian): 3.86 µM; TGI (OVCAR-5 ovarian): > 100 µM; GI50 (RPMI-8226 leukemia): 4.33 µM; TGI (RPMI-8226 leukemia): > 100 µM; GI50 (NCI/ADR-RES ovarian): 1.43 µM; TGI (NCI/ADR-RES ovarian): 20.9 µM; GI50 (U251 CNS): 2.34 µM; TGI (U251 CNS): > 100 µM; GI50 (UACC-62 melanoma): 5.42 µM; TGI (UACC-62 melanoma): > 100 µM; GI50 (SF-268 CNS): 9.89 µM; TGI (SF-268 CNS): > 100 µM; GI50 (HL-60(TB) leukemia): 3.29 µM; TGI (HL-60(TB) leukemia): 70.7 µM; GI50 (A498 renal): 1.41 µM; TGI (A498 renal): 9.27 µM; GI50 (SN12C renal): 17 µM; TGI (SN12C renal): > 100 µM; GI50 (A549 NSCLC): 7.06 µM; TGI (A549 NSCLC): > 100 µM; GI50 (SK-OV-3 ovarian): 8.15 µM; TGI (SK-OV-3 ovarian): > 100 µM; GI50 (LOX IMVI melanoma): 8.33 µM; TGI (LOX IMVI melanoma): > 100 µM; GI50 (RXF 393 renal): 3.93 µM; TGI (RXF 393 renal): 39.4 µM; GI50 (HCT-116 colon): 2.72 µM; TGI (HCT-116 colon): > 100 µM; GI50 (COLO 205 colon): 2.51 µM; TGI (COLO 205 colon): 14.4 µM; GI50 (SNB-75 CNS): 1.81 µM; TGI (SNB-75 CNS): 23 µM
